Read-outs that look alike come from different tables or passages of the source.
How the values were obtained:
[1] = Repeat dose plasma pharmacokinetics, IP; format: in vivo, SCID Beige mice; details: for concentration at 24 h: SCID Beige, mouse, plasma, intraperitoneal
Protocol: Metarrestin was administered to female BALB/c mice, n=3 in the single dose and the repeat doses were administered to SCID-beige mice, n=3 per time point. The repeat dose study mice were given daily intraperitoneal injections for 4 weeks, with concentration measured 24 h after the last dose. Metarrestin was formulated in 5% NMP+20% PEG400+75% (10% […] in water).
BALB/c mice, 17-19 g, female, n=66, were purchased and had free access to food and water. They were dosed with metarrestin at 5 or 25 mg/kg (10 ml/kg) in 5% NMP [NMP (Sigma-Aldrich cat #270458), 20% PEG400 (Sigma-Aldrich cat #202398), and 75% 10% HPBCD (Sigma-Aldrich cat #H107)] via lower left abdominal quadrant injection (n=33 each dose). The animals were anesthetized with isoflurane and restrained manually at the designated time points. Approximately 120 μL of blood were taken from the animals into K2EDTA tubes via retro-orbital puncture. Blood samples were placed on ice and centrifuged (2,000 g, 5 min under 4° C.) to obtain plasma samples within 15 minutes. An aliquot of 20 μL plasma sample was protein-precipitated with 200 μL acetonitrile that contained 50 ng/mL IS (dexamethasone). The mixture was vortexed for 2 min, centrifuged at 14,000 rpm for 5 min, and an aliquot of 30 μL supernatant was diluted with 70 μL MeOH:H2O (1:1, v/v), then vortexed for 2 min. A 2 μL aliquot of supernatant was injected into UPLC-MS/MS. Analysis of samples was done with an LC-MS/MS-02 (API4000), Waters-BEH-C18 (2.1×50 mm, 1.7 μm) column, flow rate 0.6 mL/min, with a mobile phase consisting of solvent A (H2O— 0.025% FA-1 mM NH4OAc) and solvent B (MeOH— 0.025% FA-1 mM NH4OAc). The gradient was 10, 90, 90, 10% B at 0.30, 0.60, 1.20, 1.21, 1.80 (stop) min. Retention times for metarrestin and dexamethasone were 1.09 and 1.08 min, respectively. Calibration curves were established with known serially diluted concentrations of metarrestin before analysis. SCID Beige mice were purchased and dosed with metarrestin at 5 and 25 mg/kg, once daily at 24 hour intervals for 4 weeks as above. Twenty-four hours after the final dose, the concentrations of metarrestin in plasma were analyzed.

[2] = tested on: PC3M cells; assay: 24-well Transwell MATRIGEL invasion assay, PC3M; format: cell-based, human; details: 0.6 μM, within 24 hours
Protocol: (§1) FIG. 3 is a bar graph showing that metarrestin inhibits MATRIGEL gelatinous protein mixture (BD Biosciences, Franklin Lakes, N.J.) invasion at below micromolar concentrations (0.6 μM) within 24 hours of treatment (* p<0.05 and ** p<0.01 in comparison to DMSO [control]). The invasion (%) is on the y-axis and the metarrestin [microM] is on the x-axis. The cell line PC3M is shown in white bars and the cell line PANC1 (human pancreas) is shown in black bars.
(§2) 24-well Transwell Permeable MATRIGEL gelatinous protein mixture Invasion assay: The effect of metarrestin on invasion activity of PANC1 and PC3M cells was measured using 24-well Transwell Permeable MATRIGEL gelatinous protein mixture Invasion Chambers with 8 μm pores (Corning, Cat #354480). Membranes were rehydrated with 500 μL of serum-free DMEM (Thermo Fisher, Cat #11965084) both inside the chamber and inside the well and incubated for two hours at 37° C., 5% CO2. Cells were detached, washed, resuspended in serum-free DMEM, counted, and diluted to a final concentration of 1×10^5 cells/mL in six separate 15 mL conical tubes. […] 750 μL of DMEM plus 10% FBS acting as a chemoattractant were placed in the basal wells. Plates were incubated at 37° C., 5% CO2 for 24 hours. […]

[3] = tested on: human cancer cell lines; assay: PNC prevalence in a range of cancer cell lines; format: cell-based; details: 1 μM, 24 hours, different human cancer cell lines
Protocol: FIG. 2 is a bar graph showing that 1 μM metarrestin was effective at reducing PNCs in a range of cancer cell lines (p<0.05 for PNC reduction in all cell lines; the list of cells is in Table 1 below, see also Example 2 below). The DMSO control is shown in light grey bars and metarrestin in dark grey bars. PNC prevalence (%) is on the y-axis and the cell line names are along the x-axis.
In summary, several cell types (see list below in Table 1) were treated with 1 μM (IC100 for PC3M cells) of metarrestin for 24 hours. Specifically, PC-3M cells were maintained in RPMI 1640 medium. Other cell lines including HeLa, Panel, PACADD159, PACADD183, PA-TU-8988T, KP-3, PK-8, NOR-P1, L3.6sl, Colo357, Suit-2, HP AC were maintained in DMEM with 10% FBS (GEMINI™ Bio Products) and 100 units/mL of penicillin and streptomycin. Cells were generally plated approximately 24 h before treatment with metarrestin for 5 h or 24 h at 1 μM.

[4] = tested on: PANC1 cells; assay: 24-well Transwell MATRIGEL invasion assay, PANC1; format: cell-based, human; details: 0.6 μM, within 24 hours
Protocol: as §1, §2

[5] = tested on: C57B/L6; format: in vivo, mice
[6] = 25 mg/kg IP once daily for 4 weeks, 24 h after the final dose
[7] = female, C57B/L6, mouse, in vivo
[8] = female, C57B/L6, mouse, in vivo, 3 months
[9] = male, C57B/L6, mouse, in vivo, 3 months

Q: For N=c1c2c(-c3ccccc3)c(-c3ccccc3)n(Cc3ccccc3)c2ncn1[C@H]1CC[C@H](O)CC1 [metarrestin], which Plasma concentration [1, 6] is on record?
A: The Plasma concentration was 1460 nM.

Q: And the concentration at 24 h ([1]; 5 mg/kg IP once daily for 4 weeks, 24 h after the final dose)?
A: The concentration at 24 h was 48.4 ng/mL.

Q: And the concentration at 24 h [1, 6]?
A: The concentration at 24 h was 692 ng/mL.

Q: What about the Risk of accumulation ([1]; single and multiple daily IP dosing, 5 and 25 mg/kg) of the same compound?
A: Its Risk of accumulation is “predicted moderate risk of accumulation”.

Q: What about the “Invasion of PC3M cells” value [2] of the same compound?
A: Its value is “effectively blocked the invasion”.

Q: And the PNC prevalence [3]?
A: Its PNC prevalence is “reduced PNC prevalence”.

Q: What about the “Invasion of PANC1 cells” value [4] of the same compound?
A: The value was “effectively blocked the invasion”.

Q: What about the “Kidney regeneration, tubule” value ([5]; C57B/L6 Metarrestin Female F03) of the same compound?
A: Its value is 1/4.

Q: What about the Brain hemorrhage ([5]; C57B/L6 Metarrestin Male M03) of the same compound?
A: The Brain hemorrhage was 1/4.

Q: And the Epididymis aspermia ([5]; C57B/L6 Metarrestin Male M03)?
A: Its Epididymis aspermia is 1/4.

Q: What about the “Kidney regeneration, tubule” value ([5]; C57B/L6 Metarrestin Male M03) of the same compound?
A: The value was 3/4.

Q: And the “Gall Bladder inflammation, acute” value [5, 7]?
A: Its value is 3/4.

Q: What about the “Ileum segmented filamentous bacteria” value [5, 7] of the same compound?
A: Its value is 3/4.

Q: And the “Adrenal hyperplasia, subcapsular cell” value [5, 8]?
A: The value was 3/4.

Q: What about the “Kidney dilatation, tubule” value [5, 8] of the same compound?
A: The value was 3/4.

Q: What about the Kidney infarct [5, 8] of the same compound?
A: The Kidney infarct was 1/4.

Q: And the Kidney mineralization [5, 8]?
A: The Kidney mineralization was 2/4.

Q: And the “Liver inflammation, subacute” value [5, 8]?
A: The value was 4/4.

Q: What about the Lung lymphocytic infiltrate [5, 8] of the same compound?
A: The Lung lymphocytic infiltrate was 4/4.

Q: And the “Spleen extramedullary hematopoiesis, erythrocytic, increased erythropoiesis” value [5, 8]?
A: The value was 2/4.

Q: And the Cecum proliferative typhlitis ([5]; male, C57B/L6, mouse, in vivo)?
A: The Cecum proliferative typhlitis was 1/4.

Q: And the “Femur marrow hyperplasia, granulocytic” value ([5]; male, C57B/L6, mouse, in vivo)?
A: Its value is 1/4.

Q: And the “Gall Bladder inflammation, acute” value ([5]; male, C57B/L6, mouse, in vivo)?
A: The value was 3/4.

Q: And the Heart mineralization ([5]; male, C57B/L6, mouse, in vivo)?
A: The Heart mineralization was 1/4.

Q: And the Adrenal lipogenic pigment [5, 9]?
A: The Adrenal lipogenic pigment was 4/4.

Q: What about the “Ileum segmented filamentous bacteria” value [5, 9] of the same compound?
A: Its value is 3/4.

Q: And the “Kidney dilatation, tubule” value [5, 9]?
A: Its value is 2/4.

Q: And the Kidney mineralization [5, 9]?
A: The Kidney mineralization was 2/4.

Q: And the “Kidney vacuolation. proximal tubule” value [5, 9]?
A: The value was 1/4.

Q: And the “Liver inflammation, subacute” value [5, 9]?
A: Its value is 3/4.

Q: What about the Lung lymphocytic infiltrate [5, 9] of the same compound?
A: The Lung lymphocytic infiltrate was 3/4.

Q: And the Spleen melanin [5, 9]?
A: Its Spleen melanin is 1/4.

Q: What about the “Testis degeneration, seminiferous tubule” value [5, 9] of the same compound?
A: The value was 1/4.

Q: What about the Thymus cyst [5, 9] of the same compound?
A: The Thymus cyst was 1/4.

Q: And the “Vertebra hyperplasia, granulocytic, marrow” value [5, 9]?
A: Its value is 1/4.

From patent publication US20210186972A1, “FORMULATIONS AND METHODS FOR THE PREVENTION AND TREATMENT OF TUMOR METASTASIS AND TUMORIGENESIS” (THE UNITED STATES OF AMERICA, AS REPRESENTED BY THE …, priority 2018, published 2021)
